Assay results as given in PubChem BioAssay (NCI).
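Assay format: 96-well plates, 48-hour exposure. The concentration for full growth arrest is given as TGI.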

Key:
Test in all cases: NCI-60 cell line screen, 48 h
[1] = system: A498 renal
[2] = system: CAKI-1 renal
[3] = system: DU-145 prostate
[4] = system: HCT-15 colon
[5] = system: MDA-N
[6] = system: NCI-H226 lung
[7] = system: NCI-H460 lung
[8] = system: OVCAR-3 ovarian
[9] = system: SF-268 CNS
[10] = system: SK-MEL-28 melanoma

Compound	TGI [1] [µM]	TGI [2] [µM]	TGI [3] [µM]	TGI [4] [µM]	TGI [5] [µM]	TGI [6] [µM]	TGI [7] [µM]	TGI [8] [µM]	TGI [9] [µM]	TGI [10] [µM]
C=CCOC(=O)N1c2ccc(O[Si](C)(C)C(C)(C)C)cc2[C@@]23O[C@@]24[C@@H]1C#C/C=C\C#C[C@]3(O)C(OC)(OC)C[C@@H]4C	5.48	> 100	> 100	> 100	> 100	> 100	> 100	> 100	> 100	> 100
CC1CC[C@@]2(OC1)OC1C[C@H]3[C@@H]4CC=C5CC(OC6OC(CO)C(OC7OC(CO)C(O)C(OC8OCC(O)C(O)C8O)C7OC7OC(CO)C(OC8OC(C)C(OC9OC(C)C(O)C(O)C9O)C(O)C8O)C(O)C7O)C(O)C6O)CCC5(C)[C@H]4CCC3(C)C1[C@@H]2C (stereo not given in full)	8.7	15.3	15.9	18.9	16.2	18.1	20.2	20.7	18	20.1
